Laboratory results taken from ChEMBL document CHEMBL1201862, “PubChem BioAssay data set” (2004).
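Protocol summary: plate cells (96-well), add compound at 5 concentrations, incubate 48 h, interpolate endpoints linearly. Abbreviation: GI50, concentration required for 50% inhibition of growth.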 Active and inactive are the calls of the source. Rule as the data show it: active = GI50 up to about 1.1 µM and inactive = higher.

Assays:
Experiment in all cases: growth of human tumour cells (NCI), 48 h
[1] = test system: NCI-H23
[2] = test system: MDA-MB-231
[3] = test system: NCI-H226
[4] = test system: MOLT-4
[5] = test system: HCT-116
[6] = test system: DU-145
[7] = test system: T47D
[8] = test system: HT-29
[9] = test system: HOP-62
[10] = test system: HCC 2998
[11] = test system: SK-MEL-5
[12] = test system: BT-549
[13] = test system: SNB-19
[14] = test system: UO-31
[15] = test system: A549
[16] = test system: EKVX
[17] = test system: NCI-H522
[18] = test system: PC-3
[19] = test system: MDA-N
[20] = test system: SK-OV-3
[21] = test system: HCT-15
[22] = test system: SK-MEL-2
[23] = test system: SF-268
[24] = test system: Malme-3M
[25] = test system: UACC-257
[26] = test system: OVCAR-4
[27] = test system: MDA-MB-435
[28] = test system: SK-MEL-28
[29] = test system: SW-620
[30] = test system: SF-539
[31] = test system: OVCAR-3
[32] = test system: UACC-62
[33] = test system: HL-60
[34] = test system: HOP-92
[35] = test system: Hs-578T
[36] = test system: CAKI-1
[37] = test system: SN12C
[38] = test system: K562
[39] = test system: KM12
[40] = test system: 786-0
[41] = test system: OVCAR-8
[42] = test system: CCRF-CEM
[43] = test system: SNB-75
[44] = test system: IGROV-1
[45] = test system: TK-10
[46] = test system: SF-295
[47] = test system: COLO 205
[48] = test system: U-251
[49] = test system: RXF 393
[50] = test system: RPMI-8226
[51] = test system: SR
[52] = test system: M14
[53] = test system: ACHN
[54] = test system: NCI-H460
[55] = test system: LOX IMVI
[56] = test system: A498
[57] = test system: OVCAR-5
[58] = test system: NCI/ADR-RES
[59] = test system: MCF7

## O=C1NC(=O)C(c2c[nH]c3cc(Br)ccc23)=C1c1cn(C(c2ccccc2)(c2ccccc2)c2ccccc2)cn1
[1]
  GI50: 11.3 µM (inactive)
[2]
  GI50: 5.97 µM (inactive)
[3]
  GI50: 3.38 µM (inactive)
[4]
  GI50: 4.41 µM (inactive)
[5]
  GI50: 10.5 µM (inactive)
[6]
  GI50: 21.6 µM (inactive)
[7]
  GI50: 15.2 µM (inactive)
[8]
  GI50: 9.48 µM (inactive)
[9]
  GI50: 24.7 µM (inactive)
[10]
  GI50: 12.6 µM (inactive)
[11]
  GI50: 10.5 µM (inactive)
[12]
  GI50: 16 µM (inactive)
[13]
  GI50: 23.9 µM (inactive)
[14]
  GI50: 14.8 µM (inactive)
[15]
  GI50: 7.24 µM (inactive)
[16]
  GI50: 7.82 µM (inactive)
[17]
  GI50: 13.3 µM (inactive)
[18]
  GI50: 6.19 µM (inactive)
[19]
  GI50: 10.1 µM (inactive)
[20]
  GI50: 28.6 µM (inactive)
[21]
  GI50: 12.8 µM
[22]
  GI50: 11.2 µM (inactive)
[23]
  GI50: 13.8 µM (inactive)
[24]
  GI50: 19.5 µM (inactive)
[25]
  GI50: 18.5 µM (inactive)
[26]
  GI50: 26.5 µM (inactive)
[27]
  GI50: 6.24 µM (inactive)
[28]
  GI50: 27.2 µM (inactive)
[29]
  GI50: 15.7 µM (inactive)
[30]
  GI50: 14.8 µM (inactive)
[31]
  GI50: 29.7 µM (inactive)
[32]
  GI50: 18.2 µM (inactive)
[33]
  GI50: 13.7 µM (inactive)
[34]
  GI50: 13.9 µM (inactive)
[35]
  GI50: 22.4 µM (inactive)
[36]
  GI50: 22.6 µM (inactive)
[37]
  GI50: 15.5 µM (inactive)
[38]
  GI50: 6.3 µM (inactive)
[39]
  GI50: 9.23 µM (inactive)
[40]
  GI50: 8.85 µM (inactive)
[41]
  GI50: 14.6 µM (inactive)
[42]
  GI50: 5.45 µM (inactive)
[43]
  GI50: 11.5 µM (inactive)
[44]
  GI50: 12 µM (inactive)
[45]
  GI50: 16.2 µM (inactive)
[46]
  GI50: 18.1 µM (inactive)
[47]
  GI50: 12.3 µM (inactive)
[48]
  GI50: 10.7 µM (inactive)
[49]
  GI50: 15 µM (inactive)
[50]
  GI50: 10.1 µM (inactive)
[51]
  GI50: 6.64 µM (inactive)
[52]
  GI50: 13.2 µM (inactive)
[53]
  GI50: 20.2 µM (inactive)
[54]
  GI50: 11.1 µM (inactive)
[55]
  GI50: 15.1 µM (inactive)
[56]
  GI50: 16.8 µM (inactive)
[57]
  GI50: 17.5 µM (inactive)
[58]
  GI50: 27.2 µM (inactive)
[59]
  GI50: 10.8 µM (inactive)

## NC(CO)C(=O)NCC(=O)O (stereo not drawn)
[1]
  GI50: > 100 µM (inactive)
[2]
  GI50: > 100 µM (inactive)
[3]
  GI50: > 100 µM (inactive)
[4]
  GI50: > 100 µM (inactive)
[5]
  GI50: > 100 µM (inactive)
[6]
  GI50: > 100 µM (inactive)
[7]
  GI50: > 100 µM (inactive)
[8]
  GI50: > 100 µM (inactive)
[9]
  GI50: > 100 µM (inactive)
[10]
  GI50: > 100 µM (inactive)
[11]
  GI50: > 100 µM (inactive)
[12]
  GI50: > 100 µM (inactive)
[13]
  GI50: > 100 µM (inactive)
[14]
  GI50: > 100 µM (inactive)
[15]
  GI50: > 100 µM (inactive)
[16]
  GI50: > 100 µM (inactive)
[17]
  GI50: > 100 µM (inactive)
[18]
  GI50: > 100 µM (inactive)
[19]
  GI50: > 100 µM (inactive)
[20]
  GI50: > 100 µM (inactive)
[21]
  GI50: > 100 µM
[22]
  GI50: > 100 µM (inactive)
[23]
  GI50: > 100 µM (inactive)
[24]
  GI50: > 100 µM (inactive)
[25]
  GI50: > 100 µM (inactive)
[26]
  GI50: > 100 µM (inactive)
[27]
  GI50: > 100 µM (inactive)
[28]
  GI50: > 100 µM (inactive)
[29]
  GI50: > 100 µM (inactive)
[30]
  GI50: > 100 µM (inactive)
[31]
  GI50: > 100 µM (inactive)
[32]
  GI50: > 100 µM (inactive)
[33]
  GI50: > 100 µM (inactive)
[34]
  GI50: > 100 µM (inactive)
[35]
  GI50: > 100 µM (inactive)
[36]
  GI50: > 100 µM (inactive)
[37]
  GI50: > 100 µM (inactive)
[38]
  GI50: > 100 µM (inactive)
[39]
  GI50: > 100 µM (inactive)
[40]
  GI50: > 100 µM (inactive)
[41]
  GI50: > 100 µM (inactive)
[42]
  GI50: > 100 µM (inactive)
[43]
  GI50: > 100 µM (inactive)
[44]
  GI50: > 100 µM (inactive)
[45]
  GI50: > 100 µM (inactive)
[46]
  GI50: > 100 µM (inactive)
[47]
  GI50: > 100 µM (inactive)
[48]
  GI50: > 100 µM (inactive)
[49]
  GI50: > 100 µM (inactive)
[50]
  GI50: > 100 µM (inactive)
[51]
  GI50: > 100 µM (inactive)
[52]
  GI50: > 100 µM (inactive)
[53]
  GI50: > 100 µM (inactive)
[54]
  GI50: > 100 µM (inactive)
[55]
  GI50: > 100 µM (inactive)
[56]
  GI50: > 100 µM (inactive)
[57]
  GI50: > 100 µM (inactive)
[58]
  GI50: > 100 µM (inactive)
[59]
  GI50: > 100 µM (inactive)
